Patent publication USH1923H, “Herbicidal (oxaalkyl) phenyl-substituted heterocycles” (FMC Corporation, priority 1998, dated 2000)

Assays:
johnsongrass [1] = experiment: postemergence herbicidal activity on johnsongrass; format: in vivo; settings: Sorghum halepense, post-emergence, 0.3 Kg/Ha, after 12-17 days, read-out: POSTEMERGENCE HERBICIDAL ACTIVITY (% CONTROL) SORHA
Description: (§1) The (oxaalkyl)phenyl-substituted heterocycles of this invention were tested for pre- and postemergence herbicidal activity using a variety of crops and weeds. The test plants included soybean (Glycine max var. Winchester),field corn (Zea mays var. Pioneer 3732), wheat (Triticum aestivum var. Lew), morningglory (Ipomea lacunosa or Ipomea hederacea), […] (Abutilon theophrasti), green foxtail (Setaria viridis), Johnsongrass (Sorghum halepense), blackgrass (Aloepecurus myosuroides), common chickweed (Stellaria media), and common cocklebur (Xanthium strumarium L.).
(§2) For preemergence testing, two disposable fiber flats (8 cm×15 cm×25 cm) for each rate of application of each candidate herbicide were filled to an approximate depth of 6.5 cm with steam-sterilized sandy loam soil. The soil was leveled and impressed with a template to provide five evenly spaced furrows 13 cm long and 0.5 cm deep in each flat. Seeds of soybean, wheat, corn, green foxtail, and johnsongrass were planted in the furrows of the first flat, and seeds of velvetleaf, morningglory, common chickweed, cocklebur, and blackgrass were planted in the furrows of the second flat. The five-row template was employed to firmly press the seeds into place. A topping soil of equal portions of sand and sandy loam soil was placed uniformly on top of each flat to a depth of approximately 0.5 cm. Flats for postemergence testing were prepared in the same manner except that they were planted 9-14 days prior to the preemergence flats and were placed in a greenhouse and watered, thus allowing the seeds to germinate and the foliage to develop.
(§3) In both pre- and postemergence tests, a stock solution of the candidate herbicide was prepared by dissolving 0.27 g of the compound in 20 mL of water/acetone (50/50) containing 0.5% v/v sorbitan monolaurate. For an application rate of 3000 g/ha of herbicide a 10 mL portion of the stock solution was diluted with water/acetone (50/50) to 45 mL.
(§4) The preemergence flats were initially subjected to a light water spray. The four flats were placed two by two along a conveyor belt (i.e., the two preemergence followed by the two postemergence flats). The conveyor belt fed under a spray nozzle mounted about ten inches above the postemergent foliage. The preemergent flats were elevated on the belt so that the soil surface was at the same level below the spray nozzle as the foliage canopy of the postemergent plants. The spray of herbicidal solution was commenced and once stabilized, the flats were passed under the spray at a speed to receive a coverage equivalent of 1000 L/ha. At this coverage the application rates are those shown in the above table for the individual herbicidal solutions. The preemergence flats were watered immediately thereafter, placed in the greenhouse and watered regularly at the soil surface. The postemergence flats were immediately placed in the green-house and not watered until 24 hours after treatment with the test solution. Thereafter they were regularly watered at ground level. After 12-17 days the plants were examined and the phytotoxicity data were recorded.
(§5) Phytotoxicity data were taken as percent control. Percent control was by a method similar to the 0 to 1 00 rating system disclosed in "Research Methods in Weed Science," 2nd ed., B. Truelove, Ed.; Southern Weed Science Society; Auburn University, Auburn, Ala., 1977.

wheat [2] = experiment: postemergence herbicidal activity on wheat; format: in vivo, Triticum aestivum var. Lew; settings: Triticum aestivum, post-emergence, 0.3 Kg/Ha, after 12-17 days, read-out: POSTEMERGENCE HERBICIDAL ACTIVITY (% CONTROL) WHT
Description: as §1, §2, §3, §4, §5

velvetleaf [3] = experiment: postemergence herbicidal activity on velvetleaf; format: in vivo; settings: Abutilon theophrasti, post-emergence, 0.3 Kg/Ha, after 12-17 days, read-out: POSTEMERGENCE HERBICIDAL ACTIVITY (% CONTROL) ABUTH
Description: as §1, §2, §3, §4, §5

corn [4] = experiment: preemergence herbicidal activity on corn; format: in vivo, Zea mays var. Pioneer 3732; settings: Zea mays, pre-emergence, 0.3 Kg/Ha, after 12-17 days, read-out: PREEMERGENCE HERBICIDAL ACTIVITY (% CONTROL) CRN
Description: as §1, §2, §3, §4, §5

soybean [5] = experiment: preemergence herbicidal activity on soybean; format: in vivo, Glycine max var. Winchester; settings: Glycine max, pre-emergence, 0.3 Kg/Ha, after 12-17 days, read-out: PREEMERGENCE HERBICIDAL ACTIVITY (% CONTROL) SOY
Description: as §1, §2, §3, §4, §5

cocklebur [6] = experiment: postemergence herbicidal activity on cocklebur; format: in vivo, Xanthium strumarium L.; settings: Xanthium strumarium, post-emergence, 0.3 Kg/Ha, after 12-17 days, read-out: POSTEMERGENCE HERBICIDAL ACTIVITY (% CONTROL) XANPE
Description: as §1, §2, §3, §4, §5

cocklebur [7] = experiment: preemergence herbicidal activity on cocklebur; format: in vivo, Xanthium strumarium L.; settings: Xanthium strumarium, pre-emergence, 0.3 Kg/Ha, after 12-17 days, read-out: PREEMERGENCE HERBICIDAL ACTIVITY (% CONTROL) XANPE
Description: as §1, §2, §3, §4, §5

morningglory [8] = experiment: preemergence herbicidal activity on morningglory; format: in vivo, Ipomea lacunosa or Ipomea hederacea; settings: Ipomoea, pre-emergence, 0.3 Kg/Ha, after 12-17 days, read-out: PREEMERGENCE HERBICIDAL ACTIVITY (% CONTROL) IPOSS
Description: as §1, §2, §3, §4, §5

morningglory [9] = experiment: postemergence herbicidal activity on morningglory; format: in vivo, Ipomea lacunosa or Ipomea hederacea; settings: Ipomoea, post-emergence, 0.3 Kg/Ha, after 12-17 days, read-out: POSTEMERGENCE HERBICIDAL ACTIVITY (% CONTROL) IPOSS
Description: as §1, §2, §3, §4, §5

blackgrass [10] = experiment: preemergence herbicidal activity on blackgrass; format: in vivo, Aloepecurus myosuroides; settings: Alopecurus myosuroides, pre-emergence, 0.3 Kg/Ha, after 12-17 days, read-out: PREEMERGENCE HERBICIDAL ACTIVITY (% CONTROL) ALOMY
Description: as §1, §2, §3, §4, §5

johnsongrass [11] = experiment: preemergence herbicidal activity on johnsongrass; format: in vivo; settings: Sorghum halepense, pre-emergence, 0.3 Kg/Ha, after 12-17 days, read-out: PREEMERGENCE HERBICIDAL ACTIVITY (% CONTROL) SORHA
Description: as §1, §2, §3, §4, §5

soybean [12] = experiment: postemergence herbicidal activity on soybean; format: in vivo, Glycine max var. Winchester; settings: Glycine max, post-emergence, 0.3 Kg/Ha, after 12-17 days, read-out: POSTEMERGENCE HERBICIDAL ACTIVITY (% CONTROL) SOY
Description: as §1, §2, §3, §4, §5

green foxtail [13] = experiment: postemergence herbicidal activity on green foxtail; format: in vivo; settings: Setaria viridis, post-emergence, 0.3 Kg/Ha, after 12-17 days, read-out: POSTEMERGENCE HERBICIDAL ACTIVITY (% CONTROL) SETVI
Description: as §1, §2, §3, §4, §5

chickweed [14] = experiment: preemergence herbicidal activity on chickweed; format: in vivo; settings: Stellaria media, pre-emergence, 0.3 Kg/Ha, after 12-17 days, read-out: PREEMERGENCE HERBICIDAL ACTIVITY (% CONTROL) STEME
Description: as §1, §2, §3, §4, §5

wheat [15] = experiment: preemergence herbicidal activity on wheat; format: in vivo, Triticum aestivum var. Lew; settings: Triticum aestivum, pre-emergence, 0.3 Kg/Ha, after 12-17 days, read-out: PREEMERGENCE HERBICIDAL ACTIVITY (% CONTROL) WHT
Description: as §1, §2, §3, §4, §5

blackgrass [16] = experiment: postemergence herbicidal activity on blackgrass; format: in vivo, Aloepecurus myosuroides; settings: Alopecurus myosuroides, post-emergence, 0.3 Kg/Ha, after 12-17 days, read-out: POSTEMERGENCE HERBICIDAL ACTIVITY (% CONTROL) ALOMY
Description: as §1, §2, §3, §4, §5

corn [17] = experiment: postemergence herbicidal activity on corn; format: in vivo, Zea mays var. Pioneer 3732; settings: Zea mays, post-emergence, 0.3 Kg/Ha, after 12-17 days, read-out: POSTEMERGENCE HERBICIDAL ACTIVITY (% CONTROL) CRN
Description: as §1, §2, §3, §4, §5

green foxtail [18] = experiment: preemergence herbicidal activity on green foxtail; format: in vivo; settings: Setaria viridis, pre-emergence, 0.3 Kg/Ha, after 12-17 days, read-out: PREEMERGENCE HERBICIDAL ACTIVITY (% CONTROL) SETVI
Description: as §1, §2, §3, §4, §5

chickweed [19] = experiment: postemergence herbicidal activity on chickweed; format: in vivo; settings: Stellaria media, post-emergence, 0.3 Kg/Ha, after 12-17 days, read-out: POSTEMERGENCE HERBICIDAL ACTIVITY (% CONTROL) STEME
Description: as §1, §2, §3, §4, §5

velvetleaf [20] = experiment: preemergence herbicidal activity on velvetleaf; format: in vivo; settings: Abutilon theophrasti, pre-emergence, 0.3 Kg/Ha, after 12-17 days, read-out: PREEMERGENCE HERBICIDAL ACTIVITY (% CONTROL) ABUTH
Description: as §1, §2, §3, §4, §5

Row | Structure (SMILES) | activity at 300 g/ha (johnsongrass [1]) | activity at 300 g/ha (wheat [2]) | activity at 300 g/ha (velvetleaf [3]) | activity at 300 g/ha (corn [4]) | activity at 300 g/ha (soybean [5]) | activity at 300 g/ha (cocklebur [6]) | activity at 300 g/ha (cocklebur [7]) | activity at 300 g/ha (morningglory [8]) | activity at 300 g/ha (morningglory [9]) | activity at 300 g/ha (blackgrass [10]) | activity at 300 g/ha (johnsongrass [11]) | activity at 300 g/ha (soybean [12]) | activity at 300 g/ha (green foxtail [13]) | activity at 300 g/ha (chickweed [14]) | activity at 300 g/ha (wheat [15]) | activity at 300 g/ha (blackgrass [16]) | activity at 300 g/ha (corn [17]) | activity at 300 g/ha (green foxtail [18]) | activity at 300 g/ha (chickweed [19]) | activity at 300 g/ha (velvetleaf [20])
1 | Cn1c(C(F)(F)F)cc(=O)n(-c2cc(CC(Cl)C(C)(C)O)c(Cl)cc2F)c1=O (stereo not drawn) [Compound 1, 2-CHLORO-3-METHYL-1-[2-CHLORO-4-FLUORO-5-[1-METHYL-6-TRIFLUOROMETHYL-2,4(1H,3H)-PYRIMIDINDION-3-YL]PHENYL]BUTAN-3-OL] | 100% | 90% | 100% | 95% | 100% | 100% | 95% | 100% | 100% | 80% | 95% | 100% | 100% | 100% | 80% | 80% | 100% | 100% | 100% | 100%
2 | Cn1nc(-c2cc(CC(Cl)C(C)(C)O)c(Cl)cc2F)c(Cl)c1OC(F)F (stereo not drawn) [Compound 3] | 60% | 40% | 100% | 40% | 60% | 100% | 100% | 100% | 100% | – | 75% | 95% | 100% | 100% | 30% | – | 70% | 100% | 100% | 100%
3 | CC(=O)OC(C)(C)C(Cl)Cc1cc(-n2c(=O)cc(C(F)(F)F)n(C)c2=O)c(F)cc1Cl (stereo not drawn) [Compound 16, 2-CHLORO-3-METHYL-1-[2-CHLORO-4-FLUORO-5-[1-METHYL-6-TRIFLUOROMETHYL-2,4(1H,3H)-PYRIMIDINDION-3-YL]PHENYL]BUTAN-3-YL ACETATE] | 100% | 60% | 100% | 90% | 100% | 100% | 100% | 100% | 90% | – | 100% | 95% | 100% | 100% | 70% | 100% | 90% | 100% | 100% | 100%
